Assay results: ChEMBL document CHEMBL3621045, “Structural Insights Lead to a Negamycin Analogue with Improved Antimicrobial Activity against Gram-Negative Pathogens” (ACS Med Chem Lett, 2015)
Values after ≈ are worked out from the molar mass of the structure shown.

Legend:
Escherichia coli [1] = test: Inhibition of transcription-translation process in Escherichia coli; type: functional
Klebsiella pneumoniae = test: Antibacterial activity against Klebsiella pneumoniae ATCC 700603; type: functional
Acinetobacter baumannii = test: Antibacterial activity against Acinetobacter baumannii ARC 3495; type: functional
Pseudomonas aeruginosa [2] = test: Antibacterial activity against Pseudomonas aeruginosa PAO1; type: functional
Escherichia coli [3] = test: microbe, parasite or virus in culture; settings: ATCC 25922
Description: Antibacterial activity against Escherichia coli ATCC 25922

Pseudomonas aeruginosa [4] = test: Antibacterial activity against mexABCDXY-deficient Pseudomonas aeruginosa PAO1; type: functional
Escherichia coli [5] = test: microbe, parasite or virus in culture; settings: ATCC 25922; remark: listed apart in the source
Description: Antibacterial activity against tolC-deficient Escherichia coli ATCC 25922

Molecule	IC50 (Escherichia coli [1]; Escherichia coli) [µM]	MIC (Klebsiella pneumoniae) [µg/mL]	MIC (Acinetobacter baumannii) [µg/mL]	MIC (Pseudomonas aeruginosa [2]) [µg/mL]	MIC (Escherichia coli [3]) [µg/mL]	MIC (Pseudomonas aeruginosa [4]) [µg/mL]	MIC (Escherichia coli [5]) [µg/mL]	IC50 (Escherichia coli [1]) [µM]
CC(C(=O)NN(C)CC(=O)O)[C@H](N)C[C@@H](O)CN (some centres not stated)	12	≥ 256	128 (≈ 488 µM)	≥ 256	128 (≈ 488 µM)			
CN(CC(=O)O)NC(=O)C[C@@H](N)C[C@H](O)CN	12	256 (≈ 1030 µM)	128 (≈ 516 µM)	256 (≈ 1030 µM)	512 (≈ 2060 µM)			
CN(CC(=O)O)NC(=O)C[C@H](N)C[C@@H](O)CNCc1ccccn1	11	> 256	> 256	> 256	> 256	> 256	256 (≈ 754 µM)	
NC[C@H](O)C[C@@H](N)CC(=O)NNCC(=O)O	34	> 64	> 64	> 64	> 64			
CN(CC(=O)O)N(C)C(=O)C[C@H](N)C[C@@H](O)CN	> 100	> 256	> 256	> 256	> 256			
CN(CC(=O)O)NC(=O)C[C@H](N)C[C@@H](O)CNC(CCN)c1ccccc1 (some centres not stated)	2.3	64 (≈ 168 µM)	> 256	> 256	256 (≈ 671 µM)	32 (≈ 83.9 µM)	128 (≈ 336 µM)	
CC(=O)NCCCNC[C@H](O)C[C@@H](N)CC(=O)NN(C)CC(=O)O	19	> 512	> 512	> 512	> 512	> 512	> 512	
CN(CC(=O)O)NC(=O)C[C@H](N)C[C@H](O)CN	51	1020 (≈ 4120 µM)	512 (≈ 2060 µM)	> 1020	1020 (≈ 4120 µM)			
CN(CC(=O)O)NC(=O)C[C@H](N)C[C@@H](O)CNCCCNC(=N)N	1.7	128 (≈ 368 µM)	64 (≈ 184 µM)	512 (≈ 1470 µM)	512 (≈ 1470 µM)	256 (≈ 737 µM)	256 (≈ 737 µM)	
CN(CC(=O)O)NC(=O)C[C@H](N)C[C@@H](O)CNCC(F)CN (some centres not stated)	3.6	128 (≈ 396 µM)	256 (≈ 792 µM)	256 (≈ 792 µM)	256 (≈ 792 µM)	128 (≈ 396 µM)	128 (≈ 396 µM)	
CN(CC(=O)O)NC(=O)C[C@H](N)C[C@@H](O)CNCC1CNC1	3.9	64 (≈ 202 µM)	128 (≈ 403 µM)	256 (≈ 807 µM)	256 (≈ 807 µM)	128 (≈ 403 µM)	128 (≈ 403 µM)	
CN(CC(=O)O)NC(=O)C[C@H](N)C[C@@H](O)CNCCN	2.1	32 (≈ 110 µM)	64 (≈ 220 µM)	128 (≈ 439 µM)	64 (≈ 220 µM)	64 (≈ 220 µM)	64 (≈ 220 µM)	
CC(N)CCNC[C@H](O)C[C@@H](N)CC(=O)NN(C)CC(=O)O (some centres not stated)	3.4	64 (≈ 200 µM)	64 (≈ 200 µM)	128 (≈ 401 µM)	64 (≈ 200 µM)	64 (≈ 200 µM)	64 (≈ 200 µM)	
CCNC[C@H](O)C[C@@H](N)CC(=O)NN(C)CC(=O)O	0.5	64 (≈ 232 µM)	64 (≈ 232 µM)	512 (≈ 1850 µM)	64 (≈ 232 µM)			
CN(CC(=O)O)NC(=O)C[C@@H](N)C[C@@H](O)CN	13	256 (≈ 1030 µM)	256 (≈ 1030 µM)	> 256	> 256			
CN(CC(=O)O)NC(=O)C[C@H](N)C[C@@H](O)CNC[C@@H](O)CN	2.5	64 (≈ 199 µM)	128 (≈ 398 µM)	256 (≈ 797 µM)	256 (≈ 797 µM)	128 (≈ 398 µM)	64 (≈ 199 µM)	
CN(CC(=O)O)NC(=O)C[C@H](N)[C@@H](O)[C@@H](O)CN	3.2	> 64	64 (≈ 242 µM)	> 64	> 64			
GENTAMICIN [listing 1 of 2 here]								0.4

Molecule	IC50 (Escherichia coli [1]; Escherichia coli) [µM]	MIC (Klebsiella pneumoniae) [µg/mL]	MIC (Acinetobacter baumannii) [µg/mL]	MIC (Pseudomonas aeruginosa [2]) [µg/mL]	MIC (Escherichia coli [3]) [µg/mL]	MIC (Pseudomonas aeruginosa [4]) [µg/mL]	MIC (Escherichia coli [5]) [µg/mL]	IC50 (Escherichia coli [1]) [µM]
CN(CC(=O)O)NC(=O)C[C@H](N)C[C@@H](O)CNCCC(N)=O	4	> 256	> 256	> 256	> 256	> 256	256 (≈ 802 µM)	
CN(CC(=O)O)NC(=O)C[C@@H](N)C[C@@H](O)CNCCCN	2.8	64 (≈ 210 µM)	32 (≈ 105 µM)	128 (≈ 419 µM)	128 (≈ 419 µM)	128 (≈ 419 µM)	128 (≈ 419 µM)	
CN(CC(=O)O)NC(=O)C[C@H](N)C[C@@H](O)CN [NEGAMYCIN]	1.7	32 (≈ 129 µM)	16 (≈ 64.4 µM)	32 (≈ 129 µM)	16 (≈ 64.4 µM)	16 (≈ 64.4 µM)	16 (≈ 64.4 µM)	
NC[C@H](O)C[C@@H](N)CC(=O)NOCC(=O)O	> 100	> 256	> 256	> 256	> 256			
CN(CC(=O)O)NC(=O)C[C@H](N)C[C@@H](O)[C@@H](N)CO	7.3	> 128	128 (≈ 460 µM)	> 128	> 128			
CN(CC(=O)O)NC(=O)C[C@H](N)C[C@@H](O)CNCC(N)CN (some centres not stated)	10	64 (≈ 200 µM)	32 (≈ 99.9 µM)	128 (≈ 400 µM)	128 (≈ 400 µM)	128 (≈ 400 µM)	128 (≈ 400 µM)	
CN(CC(=O)O)NC(=O)C[C@H](N)C[C@@H](O)CNCCF	2.3	64 (≈ 217 µM)	128 (≈ 435 µM)	> 256	64 (≈ 217 µM)	256 (≈ 870 µM)	128 (≈ 435 µM)	
CN(CC(=O)O)NC(=O)C[C@H](N)C[C@H](F)CN	26	> 512	> 512	> 512	> 512			
COCCNC[C@H](O)C[C@@H](N)CC(=O)NN(C)CC(=O)O	5.3	128 (≈ 418 µM)	256 (≈ 836 µM)	> 256	> 256	> 256	128 (≈ 418 µM)	
CN(C)CCCNC[C@H](O)C[C@@H](N)CC(=O)NN(C)CC(=O)O	15	256 (≈ 768 µM)	256 (≈ 768 µM)	> 256	> 256	> 256	> 256	
CN(CC(=O)O)NC(=O)C[C@H](N)C[C@@H](O)CNCc1ccccc1	1	128 (≈ 378 µM)	> 256	> 256	128 (≈ 378 µM)			
CN(CC(=O)O)NC(=O)C[C@H](N)CCCN	3.3	128 (≈ 551 µM)	128 (≈ 551 µM)	128 (≈ 551 µM)	128 (≈ 551 µM)			
CCN(CC(=O)O)NC(=O)C[C@H](N)C[C@@H](O)CN	7.4	128 (≈ 488 µM)	256 (≈ 976 µM)	128 (≈ 488 µM)	256 (≈ 976 µM)			
CN(CC(=O)O)NC(=O)C[C@H](N)[C@H](O)[C@@H](O)CN	43	> 256	> 256	> 256	> 256			
GENTAMICIN [listing 2 of 2 here]		8	> 64	1		0.13		
CN(CC(=O)O)NC(=O)C[C@H](N)C[C@@H](F)CN	2.9	64 (≈ 256 µM)	128 (≈ 511 µM)	128 (≈ 511 µM)	64 (≈ 256 µM)			
CN(CC(=O)O)NC(=O)C[C@H](N)C[C@@H](O)[C@H](N)CO	78	> 512	> 512	> 512	> 512			
